The results in this text go back to ChEMBL document CHEMBL3046807, “Synthesis and anti-inflammatory evaluation of some new 3,6-disubstituted-1,2,4-triazolo-[3,4-b]-1,3,4-thiadiazoles bearing pyrazole moiety” (2012).

For one assay, the system named is Rattus norvegicus. In words: Anti-inflammatory activity in Rattus norvegicus Wistar (rat) assessed as inhibition of carrageenan-induced paw edema at 10 mg/kg, ip administered 30 min post carrageenan-challenge measured after 2.5 hr relative to control. In kind it is functional. Conditions: route intraperitoneal. (In the carrageenan paw model, swelling and tenderness develop within hours.)
In general, inhibition in vivo refers to the change of the read-out against control, counted positive when it falls. Turning to `O=C(O)Cc1ccccc1Nc1c(Cl)cccc1Cl` [DICLOFENAC SODIUM], the inhibition in vivo at 10 mg/kg came to 80.4%.

Another assay relates to Rattus norvegicus. In words: Anti-inflammatory activity in Rattus norvegicus Wistar (rat) assessed as inhibition of carrageenan-induced paw edema at 20 mg/kg, ip administered 30 min post carrageenan-challenge measured after 2.5 hr relative to control. The conditions noted are these: route intraperitoneal. The class given is functional.
Turning to `CCc1nnc2sc(-c3c[nH]nc3-c3ccccc3)nn12`, the inhibition in vivo at 20 mg/kg was determined as 29.4%.

Regarding `CCc1nnc2sc(-c3c[nH]nc3-c3ccc(F)cc3)nn12`, the inhibition in vivo at 20 mg/kg was determined as 23.5%.

For `CCc1nnc2sc(-c3c[nH]nc3-c3ccc(OC)cc3)nn12`, the inhibition in vivo at 20 mg/kg is 17.6%.

In the case of `CCc1nnc2sc(-c3c[nH]nc3-c3ccc(Cl)cc3)nn12`, the inhibition in vivo at 20 mg/kg is 56.9%.

Turning to `CCCc1nnc2sc(-c3c[nH]nc3-c3ccccc3)nn12`, the inhibition in vivo at 20 mg/kg is 56.9%.

Consider `CCCc1nnc2sc(-c3c[nH]nc3-c3ccc(F)cc3)nn12`, for which the inhibition in vivo at 20 mg/kg was determined as 12%.

With `CCCc1nnc2sc(-c3c[nH]nc3-c3ccc(OC)cc3)nn12`, the inhibition in vivo at 20 mg/kg was determined as 13.5%.

With `CCCc1nnc2sc(-c3c[nH]nc3-c3ccc(Cl)cc3)nn12`, the inhibition in vivo at 20 mg/kg was 64.7%.

For the molecule `CCc1nnc2sc(-c3c[nH]nc3-c3ccc(Cl)cc3Cl)nn12`, the inhibition in vivo at 20 mg/kg was found to be 25.5%.

In the case of `CCCc1nnc2sc(-c3c[nH]nc3-c3ccc(Cl)cc3Cl)nn12`, the inhibition in vivo at 20 mg/kg came out at 23.5%.
